Counter-ions that a name gives are not always drawn.
Tests used:
[1] = tested on: skin-mimicking three-dimensional epidermal models (EPI-MODEL12, J-TEC); experiment: Evaluation of electro-osmosis (electro-permeation): drug permeation through three-dimensional epidermal model into reservoir solution with vs without electric current (permeation evaluation system 1), HPLC; settings: ketoprofen solution pH 6.6, 20 μA for 2 hours
Experimental: A specific method for evaluating drug permeation into the skin is described. A 7 mm×7 mm carbon cloth is coated with 80 µl of a solution of multi-walled carbon nanotubes in two separate instances and dried at 60° C. The carbon cloth is washed with pure water and further dried to prepare an electrode to be provided directly on cells. Skin-mimicking three-dimensional epidermal models (EPI-MODEL12, J-TEC) are used as the cells. Phosphate-buffered saline (PBS) is used as a reservoir solution. An Ag/AgCl electrode is introduced into the reservoir solution. Subsequently, each electrode is electrically connected to a […] source meter. A drug is dissolved in an appropriate solution. The drug solution of 400 µl is added dropwise to the cells, and the carbon cloth electrode is soaked therein. First, an electrode on the cells is connected to the positive electrode, and the Ag/AgCl electrode on the reservoir solution side is connected to the negative electrode. […] In the same manner, comparative experiment of adding 400 µl of the same drug solution dropwise to the cells is performed without the application of the electric current. […] Analysis can be performed by HPLC analysis, mass analysis, or other means. The amount of permeation with the application of the electric current is compared with that without the application of the electric current. […]

[2] = cited from earlier work

Row | SMILES | amount of permeation compared with a system without applying an electric current (100%) ([1]; electrode on the cells connected to positive electrode) [%] | amount of permeation relative to that measured in a system without applying an electric current (100%) ([1]; reversed direction, electrode on the cells connected to negative electrode) [%] | pKa [2]
1 | CC(C(=O)O)c1cccc(C(=O)c2ccccc2)c1 (stereo not drawn) [ketoprofen] | 306 | 231 | –
2 | CCCCNc1ccc(C(=O)OCCN(C)C)cc1 [tetracaine hydrochloride] | – | – | 8.4

Reference: patent US20260263384A1, “TRANSDERMAL ELLECTRICALLY CONDUCTIVE PATCH” (KIKKOMAN CORPORATION, priority 2023, published 2026)
